Measurements: PMC10403511, “DNA-encoded chemical libraries yield non-covalent and non-peptidic SARS-CoV-2 main protease inhibitors” (Communications Chemistry, 2023)
Entries after “also recorded” stand apart in the source; their conditions may differ. Read-outs that look alike come from different tables or passages of the source.

Biological target: T1, SARS-CoV-2 M^pro (Severe acute respiratory syndrome coronavirus 2, UniProt P0DTD1)
T1 construct: the gene for M^pro (ORF1ab residues 3264 to 3569, GenBank code: MN908947.3); Sumo fusion with M^pro cleavage site (SAVLQ↓SGFRK) (N, cleaved yes); 6xHis-tag behind PreScission site (SGVTFQ↓GP) (C); made in house; host or cells: E. coli BL21(DE3)
Experiment: M^pro enzyme inhibition assay, proteolytic cleavage of fluorescent peptide reporter, Ki by Morrison equation
Type: biochemical
Excerpt: Hydrolysis of the fluorescent peptide was monitored at an emission wavelength of 460 nm with an excitation wavelength of 360 nm using a TECAN M200 plate reader. Initial hydrolysis rates of fluorescent peptide were plotted as a function of compound concentrations, and Ki values were obtained by fitting the data into the Morrison equation[32] with SE from triplicates.
inhibitors. […] The remaining activities (red dots) of Mpro towards fluorescent
peptide we re plotted as a function of compound concentrations and Ki values wa s calculated by fitting the da ta int o Morrison equation wit h standard error f romS6 […]

[1] = 25 nM Mpro with authentic termini (no His-tag), standard error from triplicates, Inactive: less than 50% inhibition with 25 µM compound
[2] = 25 nM Mpro-6-His, standard error from triplicates, Inactive: less than 50% inhibition with 25 µM compound in initial screening
[3] = Fig. 2, Suppl. Fig. 1, construct not given, Inactive: inhibited M^pro activity by less than 90% with 25 μM
[4] = 25 nM Mpro with authentic termini (no His-tag), standard error from triplicates, Inactive: less than 50% inhibition with 25 µM compound, read-out: Mpro Ki
[5] = Fig. 2, Suppl. Fig. 1, construct not given, Inactive: inhibited M^pro activity by less than 90% with 25 μM, read-out: Ki

SMILES | Mpro Ki [1] | Mpro-His Ki [2] | Ki [3] | Ki (read-out: Mpro Ki) | other results
CCC[C@H](NC(=O)c1cccc2nc(-c3cncc4ccccc34)n(C(C)C)c12)c1ccc(C(F)(F)F)cc1 [CDD-1804] | Inactive | Inactive | completely abolished; also recorded: greatly reduces potency |  | 
CCC[C@H](NC(=O)c1cccc2nc(-c3cncc4ccccc34)n([C@H]3C[C@H](C(=O)NC)C3)c12)c1cccc(C(F)(F)F)c1 [CDD-1795] |  |  |  |  | Ki [4]: 35 ± 5 nM; Ki [5]: 29 nM; decrease of activity compared to CDD-1733 (from Ki values): approximately 2 fold
CNC(=O)CCCn1c(-c2cncc3ccccc23)nc2cccc(C(=O)NCc3ccc4ccccc4c3)c21 [CDD-1925] |  |  |  | 42 ± 5 nM | Ki (read-out: Ki): 51 nM
CCC[C@H](NC(=O)c1cccc2nc(-c3cncc4ccccc34)n(CCCC(=O)NC)c12)c1ccc(C(F)(F)F)cc1 [CDD-1830] |  |  |  |  | Ki [4]: 6 ± 1 nM; Ki (25 nM Mpro-6-His, standard error from triplicates, Inactive: less than 50% inhibition with 25 µM compound in initial screening, read-out: Mpro-His Ki): 6 ± 1 nM; Ki [5]: 6 nM
CNC(=O)[C@H]1C[C@H](n2c(-c3cncc4ccccc34)nc3cccc(C(=O)N[C@@H](C)c4ccccc4)c32)C1 [CDD-1841] |  |  |  | 565 ± 55 nM | Ki (read-out: Ki): 571 nM
CNC(=O)CCCn1c(-c2cccc3ccccc23)nc2cccc(C(=O)N[C@@H](C)c3ccc4ccccc4c3)c21 [CDD-1885] |  |  |  |  | Mpro Ki: Inactive; Mpro-His Ki: Inactive
CNC(=O)[C@H]1C[C@H](n2c(-c3cncc4ccccc34)nc3cccc(C(=O)NC(C)C)c32)C1 [CDD-1842] | Inactive | Inactive | completely inactive |  | 
CCC[C@H](NC(=O)c1cccc2nc(-c3cncc4ccccc34)n([C@H]3C[C@H](C(=O)NC)C3)c12)c1ccccc1 [CDD-1843] |  |  |  |  | Mpro Ki: Inactive; Mpro-His Ki: Inactive
CNC(=O)CCCn1c(-c2cnccc2C)nc2cccc(C(=O)N[C@@H](C)c3ccc4ccccc4c3)c21 [CDD-1924] |  |  |  | 426 ± 47 nM | 
CCC[C@H](NC(=O)c1cccc2nc(-c3cccnc3)n([C@H]3C[C@H](C(=O)NC)C3)c12)c1ccc(C(F)(F)F)cc1 [CDD-1831] | Inactive | Inactive | total loss of activity; also recorded: inactive or exhibit greatly decreased potency |  | 
